Test results taken from patent publication US20090012178A1, “Benzoxazocines and Their Therapeutic Use” (priority 2005, published 2009).
Like-named read-outs stand apart in the source and are kept apart here.

What was measured:
[1] = Formalin-induced paw licking in mouse; format: in vivo; conditions: * = statistical significance; for Nociception, Early Phase: licking time 0 to 5 minutes after formalin; for Nociception, Late Phase: licking time 20 to 30 minutes after formalin
Description: Compounds of the invention have also been evaluated in the formalin-induced paw licking model in mice. Compounds were evaluated for both an early stage response and a late stage response against duloxetine and nefopam as controls.
Inflammation was induced by subplantar injection of a 5% formalin solution (0.02 ml) into the mouse right hindpaw (20-25 g male Rj: NMRI). Hindpaw licking time was continuously recorded in a blinded fashion between 0 to 5 minutes (early phase) and between 20 to 30 minutes (late phase) after formalin injection (Hunskaar et al., 1985—J. Neurosci. Methods; 14:69-76).
The test substances and vehicle were orally administered 60 min before formalin injection. Results are given in Table 3 (nt=not tested; *denotes statistical significance achieved).

CYP 2D6 = CYP 2D6 (Homo sapiens, UniProt P10635); assay: CYP 2D6 inhibition, substrate based assay; format: in vitro ADME
Description: (§1) CYP 2D6 inhibition assays were conducted according to the method of Ono et al. (1996—Xenobiotica, 26: 681-693). 5-HT Transporter binding assays were conducted according to the method of Tatsumi et al. (1997—Eur. J. Pharmacol., 340: 249-258). NA Transporter binding assays were conducted according to the method of Pacholczyk et al. (1991—Nature, 350: 350-354).

[2] = Mouse hotplate model of acute analgesia; format: in vivo; conditions: for Paw Latency (Sec) above control: 60 min before testing, * = statistical significance
Description: Compounds of the invention have also been evaluated in the mouse hotplate model of acute analgesia. Mice placed on a metallic hot plate will respond by paw licking or by jumping up from the plate (Eddy et al., 1950—J. Pharmacol. Exp. Ther.; 98:121-137). Analgesics increase nociceptive reaction latency.
Mice (17-23 g male Swiss mice ICO: OF1) were placed on a metallic hot plate maintained at 56±0.2° C. The nociceptive reaction latency, characterized by a licking reflex of the forepaws or by a jumping off the hot plate, was recorded. Plate heat cut-off time was 30 seconds. The test substances and vehicle were orally administered 60 min before testing. Results are given in Table 2 (nt=not tested; *denotes statistical significance achieved).

5-HT Transporter = 5-HT Transporter (Homo sapiens, UniProt P31645); assay: 5-HT Transporter binding assay (SRI)
Description: as §1

[3] = Morphine challenge assay (morphine-induced emesis in ferrets); format: in vivo, ferret; conditions: for % Reduction in no of retches/vomits: 3 mg/kg ip, 60 min before morphine 0.125 mg/Kg s.c., * = statistical significance; for anti-emetic activity in the morphine-induced emesis model (in words): ferrets
Description: In this respect, compounds of the invention retain the low side-effect potential of nefopam while having greater efficacy and more favourable pharmacokinetic parameters for chronic use.
Morphine was administered (0.125 mg/Kg s.c.) to albino or fitch male ferrets (0.9-1.7 kg) to induce emesis. Emesis was characterized by rhythmic abdominal contractions which were either associated with the oral expulsion of solid or liquid material from the gastrointestinal tract (ie vomiting) or not associated with the passage of material (i.e. retching movements). The number of highly distinctive abdominal contractions was counted.
The test substances and vehicle were administered by intraperitoneal injection 60 min before morphine administration. Results are given in Table 4 (*denotes statistical significance achieved).

NA Transporter = NA Transporter (Homo sapiens, UniProt P23975); assay: NA Transporter binding assay (NRI)
Description: as §1

Pharmacokinetic profile = format: in vivo; conditions: compared with nefopam
Behavioural Despair Test = format: in vivo, mouse; conditions: 30 minutes before the test, * = statistical significance
Description: Compounds of the invention have been evaluated in the Behavioural Despair Test, a model which detects antidepressant activity.
The Behavioural Despair Test was conducted according to the method of Porsolt et al., (1977—Arch. Int. Pharmacodyn., 229:327-336). Mice forced to swim in a situation from which they cannot escape rapidly become immobile. Antidepressants decrease the duration of immobility.
Mice (20-27 g male Rj: NMRI) were individually placed in a cylinder (height=24 cm, diameter=13 cm) containing 10 cm water (22° C.), from which they cannot escape. The mice were placed in the water for 6 minutes and the duration of immobility during the last 4 minutes was measured. All compounds were administered i.p. 30 minutes before the test, and compared with a vehicle control group. Results are given in Table 5 (nt=not tested; *denotes statistical significance achieved).

cytochrome P450 enzymes = assay: Metabolism by cytochrome P450 enzymes; format: in vitro ADME
[4] = read-out: CYP 2D6 inhibition IC50

Sequence of NA Transporter (P23975 whole entry): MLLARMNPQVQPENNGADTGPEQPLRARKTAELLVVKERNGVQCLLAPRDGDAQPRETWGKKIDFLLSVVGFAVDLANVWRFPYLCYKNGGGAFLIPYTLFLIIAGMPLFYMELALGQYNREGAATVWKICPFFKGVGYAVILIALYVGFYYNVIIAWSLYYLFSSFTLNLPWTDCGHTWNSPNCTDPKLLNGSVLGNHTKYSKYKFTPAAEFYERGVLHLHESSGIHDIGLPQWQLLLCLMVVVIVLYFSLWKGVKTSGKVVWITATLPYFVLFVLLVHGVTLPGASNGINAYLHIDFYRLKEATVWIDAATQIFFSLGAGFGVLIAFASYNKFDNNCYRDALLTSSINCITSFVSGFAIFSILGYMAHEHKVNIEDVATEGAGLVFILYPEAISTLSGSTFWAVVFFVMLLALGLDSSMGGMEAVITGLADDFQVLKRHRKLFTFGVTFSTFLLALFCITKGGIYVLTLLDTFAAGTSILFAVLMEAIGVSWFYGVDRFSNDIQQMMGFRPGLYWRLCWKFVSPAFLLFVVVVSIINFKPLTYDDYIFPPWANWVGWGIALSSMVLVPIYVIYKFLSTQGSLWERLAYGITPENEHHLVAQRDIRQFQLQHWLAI
Sequence of CYP 2D6 (P10635 whole entry): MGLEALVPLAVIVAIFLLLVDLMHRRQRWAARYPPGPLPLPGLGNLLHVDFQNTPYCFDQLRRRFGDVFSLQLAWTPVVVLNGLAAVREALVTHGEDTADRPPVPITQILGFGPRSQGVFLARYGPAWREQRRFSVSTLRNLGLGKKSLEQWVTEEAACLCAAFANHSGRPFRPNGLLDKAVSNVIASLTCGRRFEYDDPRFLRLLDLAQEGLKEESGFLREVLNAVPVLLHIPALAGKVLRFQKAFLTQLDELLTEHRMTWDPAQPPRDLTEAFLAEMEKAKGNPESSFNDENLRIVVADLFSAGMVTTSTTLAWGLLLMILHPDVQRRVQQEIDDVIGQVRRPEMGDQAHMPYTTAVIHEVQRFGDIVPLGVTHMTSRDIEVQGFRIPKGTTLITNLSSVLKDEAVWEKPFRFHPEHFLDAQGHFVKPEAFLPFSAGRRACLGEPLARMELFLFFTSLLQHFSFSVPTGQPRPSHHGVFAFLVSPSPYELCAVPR
Sequence of 5-HT Transporter (P31645 whole entry): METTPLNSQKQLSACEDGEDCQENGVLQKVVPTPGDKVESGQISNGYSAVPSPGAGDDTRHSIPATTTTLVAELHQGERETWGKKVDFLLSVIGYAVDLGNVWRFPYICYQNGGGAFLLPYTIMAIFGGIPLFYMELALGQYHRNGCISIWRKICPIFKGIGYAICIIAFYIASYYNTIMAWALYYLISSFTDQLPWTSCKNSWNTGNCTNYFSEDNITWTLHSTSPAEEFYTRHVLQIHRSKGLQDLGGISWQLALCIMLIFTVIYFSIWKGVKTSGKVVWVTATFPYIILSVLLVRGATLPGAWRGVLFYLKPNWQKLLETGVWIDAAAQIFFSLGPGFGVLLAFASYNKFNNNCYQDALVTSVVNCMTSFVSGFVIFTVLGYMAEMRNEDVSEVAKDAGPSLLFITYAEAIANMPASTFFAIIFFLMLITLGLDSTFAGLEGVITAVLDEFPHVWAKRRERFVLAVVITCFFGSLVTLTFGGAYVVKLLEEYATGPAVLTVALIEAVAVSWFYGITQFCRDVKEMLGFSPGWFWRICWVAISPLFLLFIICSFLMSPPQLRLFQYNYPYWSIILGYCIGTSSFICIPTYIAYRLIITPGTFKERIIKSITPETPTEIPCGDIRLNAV

Row | SMILES | Nociception, Early Phase ([1]; 30 mg/kg po) [%] | Nociception, Late Phase ([1]; 30 mg/kg po) | Nociception, Early Phase ([1]; 60 mg/kg po) | Nociception, Late Phase ([1]; 60 mg/kg po) | IC50 (CYP 2D6) [µM] | Paw Latency (Sec) above control ([2]; 30 mg/kg po) | Paw Latency (Sec) above control ([2]; 60 mg/kg po) | % Reduction in no of retches/vomits [3] [%*] | IC50 (NA Transporter; read-out: IC50 vs NRI) [µM] | further results
1 | COc1cccc(C2OCCN(C)Cc3cc(C#N)ccc32)c1 (single isomer, unassigned) [Example 1] | −49 | −46% | −75%* | −88%* | 5.7 | 5 s | 7* Sec | 91 | 0.4 | efficacy in the mouse hot-plate model (in words) [2]: greater efficacy than the racemate; Paw Latency (Sec) above control ([2]; 10 mg/kg po): 9* Sec; IC50 (5-HT Transporter): 0.0089 µM; anti-emetic activity in the morphine-induced emesis model (in words) [3]: anti-emetic; pharmacokinetic profile (in words) (Pharmacokinetic profile): greatly improved pharmacokinetic profile over the parent compound nefopam; Duration of Immobility (% change from ctrl) (Behavioural Despair Test; 10 mg/kg ip): −24* %; Duration of Immobility (% change from ctrl) (Behavioural Despair Test; 20 mg/kg ip): −8%; Duration of Immobility (% change from ctrl) (Behavioural Despair Test; 40 mg/kg ip): −61* %; Duration of Immobility (% change from ctrl) (Behavioural Despair Test; 80 mg/kg ip): −85* %; metabolism by cytochrome P450 enzymes (in words) (cytochrome P450 enzymes): metabolised by a range of cytochrome P450 enzymes
2 | COc1cccc(C2OCCN(C)Cc3cc(C4CC4)ccc32)c1 (single isomer, unassigned) [Example 3, 8-cyclopropyl-5-methyl-1-(3-methoxy)phenyl-1,3,4,6-tetrahydro-5H-benz[f]-2,5-oxazocine] | −45 | −51% | −56%* | −73%* | – | 6* Sec | 9* Sec | 89 | – | IC50 (CYP 2D6; [4]): 1.1 µM; Paw Latency (Sec) above control ([2]; 10 mg/kg po): 3 s; IC50 (5-HT Transporter): 0.0052 µM; anti-emetic activity in the morphine-induced emesis model (in words) [3]: anti-emetic; IC50 (NA Transporter): 0.046 µM
3 | CNCC[C@H](Oc1cccc2ccccc12)c1cccs1 [Duloxetine] | −49 | −85%* | – | – | – | – | – | – | – | Duration of Immobility (% change from ctrl) (Behavioural Despair Test; 10 mg/kg ip): −6%; Duration of Immobility (% change from ctrl) (Behavioural Despair Test; 20 mg/kg ip): −9%; Duration of Immobility (% change from ctrl) (Behavioural Despair Test; 40 mg/kg ip): −65* %; Duration of Immobility (% change from ctrl) (Behavioural Despair Test; 80 mg/kg ip): −100* %
4 | COc1cccc([C@H]2OCCN(C)Cc3cc(C#N)ccc32)c1 [Example 2, (1R)-8-cyano-5-methyl-1-(3-methoxy)phenyl-1,3,4,6-tetrahydro-5H-benz[f]-2,5-oxazocine] | – | – | – | – | 9.6 | 6 s | 1 s | – | 3.8 | IC50 (5-HT Transporter; read-out: IC50 vs SRI): 0.12 µM
5 | COc1cccc(C2OCCN(C)Cc3cc(C4CC4)ccc32)c1 (stereo not shown) [Example 4, 8-cyclopropyl-5-methyl-1-(3-methoxy)phenyl-1,3,4,6-tetrahydro-5H-benz[f]-2,5-oxazocine] | – | – | – | – | > 10 | 5 s | 5 s | – | > 1 | IC50 (CYP 2D6; [4]): 10 µM; IC50 (5-HT Transporter; read-out: IC50 vs SRI): 0.021 µM; IC50 (NA Transporter; read-out: IC50 as NRI): > 1 µM
6 | CN(C)CCCN1c2ccccc2CCc2ccccc21 [Imipramine] | – | – | – | – | – | – | – | – | – | Duration of Immobility (% change from ctrl) (Behavioural Despair Test; 32 mg/kg ip): −62* %
7 | CN1CCOC(c2ccccc2)c2ccccc2C1 (stereo not shown) [Nefopam, reference compound] | – | – | −46% | −26% | – | – | – | 96 | – | Nociception, Early Phase ([1]; 100 mg/kg po): −76%*; Nociception, Late Phase ([1]; 100 mg/kg po): −68%*
